# Laboratory results: ChEMBL document CHEMBL1154525, “Synthesis of 2-amino-5-benzoyl-4-(2-furyl)thiazoles as adenosine A(2A) receptor antagonists” (Bioorg Med Chem Lett, 2009)
# What was measured:
# Adenosine receptor A2a = Adenosine receptor A2a (Homo sapiens, UniProt P29274); experiment: Displacement of [3H]SCH-58261 from human recombinant adenosine A2A receptor expressed in HEK293 cells; type: cell-based
# Adenosine receptor A1 = target: T1, Adenosine receptor A1 (Homo sapiens, UniProt P30542); experiment: Displacement of [3H]DPCPX from human recombinant adenosine A1 receptor expressed in CHOK1 cells; type: cell-based, CHO-K1
# T1 sequence (P30542 whole entry): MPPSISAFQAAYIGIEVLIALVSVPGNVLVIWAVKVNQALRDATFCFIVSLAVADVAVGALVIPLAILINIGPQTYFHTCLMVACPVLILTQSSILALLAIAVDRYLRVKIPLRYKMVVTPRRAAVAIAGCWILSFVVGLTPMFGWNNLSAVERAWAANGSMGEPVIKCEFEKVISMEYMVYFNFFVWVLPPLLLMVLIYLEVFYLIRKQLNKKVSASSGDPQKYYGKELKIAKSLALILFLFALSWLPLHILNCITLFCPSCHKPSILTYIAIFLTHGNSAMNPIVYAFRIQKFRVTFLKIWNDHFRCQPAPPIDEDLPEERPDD
# Homo sapiens = species: Homo sapiens; experiment: Selectivity ratio of Ki for human recombinant adenosine A1 receptor to Ki for human recombinant adenosine A2A receptor
# Sequence of Adenosine receptor A2a (P29274 whole entry): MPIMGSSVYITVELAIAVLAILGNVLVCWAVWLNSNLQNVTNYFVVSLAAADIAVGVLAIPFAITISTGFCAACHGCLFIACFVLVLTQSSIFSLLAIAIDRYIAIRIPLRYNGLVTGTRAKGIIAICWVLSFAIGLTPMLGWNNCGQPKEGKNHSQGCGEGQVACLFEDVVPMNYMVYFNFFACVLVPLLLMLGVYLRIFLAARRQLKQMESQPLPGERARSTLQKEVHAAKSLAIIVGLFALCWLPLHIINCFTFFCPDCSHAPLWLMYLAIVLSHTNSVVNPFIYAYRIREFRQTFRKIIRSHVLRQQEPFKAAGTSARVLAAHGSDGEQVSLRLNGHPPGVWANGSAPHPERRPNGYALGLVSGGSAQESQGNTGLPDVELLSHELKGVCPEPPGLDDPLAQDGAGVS
structure (smiles),measurement,setting,value
O=C(c1ccccc1)c1sc(NC2CCN(C(=O)c3ccccc3F)CC2)nc1-c1ccco1,Ki,Adenosine receptor A2a,105 nM
same,Ki,Adenosine receptor A1,3710 nM
same,Ratio Ki,Homo sapiens,35
O=C(c1ccccc1)c1sc(NCc2ccco2)nc1-c1ccco1,Ki,Adenosine receptor A2a,43 nM
same,Ki,Adenosine receptor A1,1460 nM
same,Ratio Ki,Homo sapiens,35
CN(Cc1ccco1)c1nc(-c2ccco2)c(C(=O)c2ccccc2)s1,Ki,Adenosine receptor A2a,160 nM
same,Ki,Adenosine receptor A1,3420 nM
same,Ratio Ki,Homo sapiens,21
O=C(c1ccccc1)c1sc(NCCc2ccc3c(c2)OCO3)nc1-c1ccco1,Ki,Adenosine receptor A2a,61 nM
same,Ki,Adenosine receptor A1,3500 nM
same,Ratio Ki,Homo sapiens,58
O=C(c1ccccc1)c1sc(NCCCc2ccccc2)nc1-c1ccco1,Ki,Adenosine receptor A2a,105 nM
same,Ki,Adenosine receptor A1,6300 nM
same,Ratio Ki,Homo sapiens,60
CC(C)CNc1nc(-c2ccco2)c(C(=O)c2ccccc2)s1,Ki,Adenosine receptor A2a,89 nM
same,Ki,Adenosine receptor A1,1280 nM
same,Ratio Ki,Homo sapiens,14
CC(=O)NCCNc1nc(-c2ccco2)c(C(=O)c2ccccc2)s1,Ki,Adenosine receptor A2a,281 nM
same,Ki,Adenosine receptor A1,2420 nM
same,Ratio Ki,Homo sapiens,9
CNc1nc(-c2ccco2)c(C(=O)c2ccccc2)s1,Ki,Adenosine receptor A2a,67 nM
same,Ki,Adenosine receptor A1,3580 nM
same,Ratio Ki,Homo sapiens,54
O=C(c1ccccc1)c1sc(N(Cc2ccccc2)Cc2ccco2)nc1-c1ccco1,Ki,Adenosine receptor A2a,88 nM
same,Ki,Adenosine receptor A1,> 10000 nM
same,Ratio Ki,Homo sapiens,> 115
COCCNc1nc(-c2ccco2)c(C(=O)c2ccccc2)s1,Ki,Adenosine receptor A2a,195 nM
same,Ki,Adenosine receptor A1,6780 nM
same,Ratio Ki,Homo sapiens,35
CN(CCc1cccs1)c1nc(-c2ccco2)c(C(=O)c2ccccc2)s1,Ki,Adenosine receptor A2a,8170 nM
same,Ki,Adenosine receptor A1,> 10000 nM
same,Ratio Ki,Homo sapiens,> 1.2
CC(=O)N1CCC(Nc2nc(-c3ccco3)c(C(=O)c3ccccc3)s2)CC1,Ki,Adenosine receptor A2a,455 nM
same,Ki,Adenosine receptor A1,1240 nM
same,Ratio Ki,Homo sapiens,3
O=C(c1ccccc1)c1sc(NCc2cccs2)nc1-c1ccco1,Ki,Adenosine receptor A2a,54 nM
same,Ki,Adenosine receptor A1,2990 nM
same,Ratio Ki,Homo sapiens,56
O=C(c1ccccc1)c1sc(NCc2ccc(F)c(F)c2)nc1-c1ccco1,Ki,Adenosine receptor A2a,64 nM
same,Ki,Adenosine receptor A1,> 7500 nM
same,Ratio Ki,Homo sapiens,> 120
O=C(c1ccccc1)c1sc(N(CCc2cccs2)Cc2ccccc2)nc1-c1ccco1,Ki,Adenosine receptor A2a,7140 nM
same,Ki,Adenosine receptor A1,> 10000 nM
same,Ratio Ki,Homo sapiens,> 1.4
COC(C)CNc1nc(-c2ccco2)c(C(=O)c2ccccc2)s1 (configuration not stated),Ki,Adenosine receptor A2a,154 nM
same,Ki,Adenosine receptor A1,3970 nM
same,Ratio Ki,Homo sapiens,26
CN(C)c1nc(-c2ccco2)c(C(=O)c2ccccc2)s1,Ki,Adenosine receptor A2a,6820 nM
same,Ki,Adenosine receptor A1,> 10000 nM
same,Ratio Ki,Homo sapiens,> 1.5
O=C(c1ccccc1)c1sc(NCCc2cccs2)nc1-c1ccco1,Ki,Adenosine receptor A2a,12 nM
same,Ki,Adenosine receptor A1,> 6700 nM
same,Ratio Ki,Homo sapiens,> 580
CN(Cc1ccccc1)c1nc(-c2ccco2)c(C(=O)c2ccccc2)s1,Ki,Adenosine receptor A2a,2800 nM
same,Ki,Adenosine receptor A1,9460 nM
same,Ratio Ki,Homo sapiens,3.4
